Reference: patent US5013724A, “Process for the sulfation of glycosaminoglycans, the sulfated glycosaminoglycans and their biological applications” (Sanofi Societe Anonyme, priority 1986, dated 1991)

Columns and labels:
[1] = system: factor IIa (thrombin); test: inhibitory activity towards factor IIa (thrombin) in the presence of HC II; assay type: biochemical; conditions: Experiment 1
Procedure: (§1) (b) inhibitory activity towards the activated factor II (factor IIa) or thrombin.
(§2) The results are expressed in μg of product per ml.
(§3) In this model system, the inhibition of factor IIa is determined by measuring the IC 50 of the test substances in the presence of AT-III and HC II.

[2] = system: thrombus formation; test: anti-thrombotic activity in vivo in the rabbit, Wessler model (human thromboplastin as thrombogenic agent); conditions: dose of 100 μg/kg
Procedure: (d) anti-thrombotic activity in vivo in the rabbit, according to the model of Wessler (such as that described by Wessler, S., Reimer, S. M. and Sheps, M. C., in J. Appl. Physiol. 14 (6), 943-946, 1959).
The test substance is injected into the carotid artery, at doses varying from 10 to 500 μg/kg, 3 mn before the administration of the thrombogenic agent (human thromboplastin).
The result is expressed as percentage of inhibition of thrombus formation.

[3] = system: blood coagulation; test: coagulation time by the APTT method; assay type: biochemical; conditions: Experiment 1
Procedure: (c) measurement of the coagulation time by the APTT method (as described in Caen, J., Larrieu, M. J., and Samama, in Hemostase, paris, Expansion Scientifique Francaise, 1968, pp 133-135).
In the present instance, the concentration of the product to be tested necessary for a doubling of the coagulation time is determined.
The result is expressed in μg of substance tested per ml.

[4] = system: plasma; test: additional experiments in plasma on cofactor dependence
[5] = system: factor IIa (thrombin); test: inhibitory activity towards factor IIa (thrombin) in the presence of AT-III; assay type: biochemical; conditions: Experiment 1
Procedure: as §1, §2, §3

With Dermatan sulfate the “Anti-IIa activity, HC II, IC 50” value [1] was 5.8 µg/mL, the “prevention of thrombus formation” value [2] was about 40% and the “activity in the APTT model (in words)” value [3] was “sursulfation increases the activity”. The “Concentration necessary to double the coagulation time” value ([3]; APTT method) was 50 µg/mL, the “cofactor dependence of the action in plasma” value [4] was “totally dependent on HC 11” and the “Anti-IIa activity, AT-III, IC 50” value [5] was 100 µg/mL.
